In patent US7407989B2, “Compounds useful for modulating abnormal cell proliferation” (The Hospital for Sick Children, priority 2004, dated 2008):

How the values were obtained:
[1] = system: Philadelphia Positive Z119 Acute Lymphoblastic Leukemia Cells; test: Killing of Philadelphia positive Z119 acute lymphoblastic leukemia cells in culture (colony assay in methylcellulose); type: cell-based; settings: colonies of more than 20 cells counted at 7-9 days, no exogenous growth factors, read-out: ALL (Z 119) IC50
Procedure: Z119 cells were plated in 1 ml volumes at a density of 5×10^4 cells/ml, in the absence of exogenous growth factors, into 35 mm petri dishes (Nunc, Gibco) containing IMDM (OCI, Toronto) plus 20% FCS (Cansera Rexdale, ON.) in 0.9% (vol/vol) methylcellulose (Fluka, Switzerland) with the indicated concentration of for various test compounds described above. Cultures were set at 37° C., 5% CO2 in a humidified atmosphere. Colonies consisting of more than 20 cells were counted at 7-9 days using an inverted microscope.

[2] = system: normal bone marrow cells (BFU-E colonies); test: Effect upon normal bone marrow differentiation in culture (CFU-GEMM assay, BFU-E colonies); type: cell-based; settings: Bone marrow cell, 336 h, BFU-E colonies evaluated at 14 days, read-out: NBM (BFU-E) IC50
Procedure: The CFU-GEMM assay was performed according to Fauser and Messner (1978, Blood, 52(6) 143-8) and Messner and Fausser (1980, Blut, 41(5) 327-33) with some variations. In brief, heparinized bone marrow cells were layered over Percoll (1.077 gm/ml) (Pharmacia Fine Chemical, Piscataway N.J.) and centrifuged at 400 g at 4° C. for 10 minutes to remove neutrophils and RBCs. The fractionated BM cells at […] were cultured in IMDM (OCI, Toronto) containing 0.9% (vol/vol) methylcellulose supplemented with 30% FCS (Cansera Rexdale, ON.) or normal human plasma, a cocktail of cytokines containing G-CSF (10 ng/ml, Amgen), IL-3 (40 U/ml, Immunex), MGF (50 ng/ml, Immunex), Erythropoietin (2 u/ml, Epprex) or TPO (10 ng/ml, Amgen), 5×10^−5 M Bβ-2-mercaptoethanol and the specified concentration of CR4. The culture mixture was plated in 1 ml volumes into 35 mm petri dishes and incubated at 37° C., 5% CO2 in a humidified atmosphere. All cultures were evaluated at 14 days for the number of BFU-E colonies (defined as aggregates of more than 500 hemoglobinized cells or, 3 or more erythroid subcolonies), CFU-GM colonies (defined as granulocyte or monocyte-macrophage cells or both), CFU-Meg colonies (comprising 4 or more megakaryocytes) and CFU-GEMM colonies (a mixed population comprising of all elements).

Structure (SMILES) | IC50 [1] [nM] | IC50 [2] [nM]
COc1cc(/C=C/C=C/C(=O)NCc2ccc(O)c(O)c2)cc(OC)c1O [CRD-84, 5-(4-Hydroxy-3,5-dimethoxyphenyl)-penta-2E,4E-dienoic acid 3,4-dihydroxybenzylamide] | > 1000 | > 10000
O=C(/C=C/C=C/c1ccc(O)c(O)c1)NCc1ccccc1 [CRD-82, 5-(3,4-Dihydroxyphenyl)-penta-2E,4E-dienoic acid benzylamide] | 460 | > 25000
COc1cc(/C=C/C=C/C(=O)NCc2ccc(O)c(O)c2)ccc1O [CRD-85, 5-(4-Hydroxy-3-methoxyphenyl)-penta-2E,4E-dienoic acid 3,4-dihydroxybenzylamide] | > 1000 | > 10000
COc1cc(/C=C/C=C/C(=O)NCc2ccccc2)ccc1O [CRD-81, 5-(4-Hydroxy-3-methoxyphenyl)-penta-2E,4E-dienoic acid benzylamide] | > 1000 | > 10000
